According to patent US9040565B2, “1H-benzimidazole-5-carboxamides as anti-inflammatory agents” (Orexo AB, priority 2008, dated 2015):

biological target: T1, recombinant human mPGES-1 (Homo sapiens, UniProt O14684); assay: mPGES-1 inhibition, HTRF detection of PGE2 (Biological Test); assay type: biochemical
T1 construct: made in house; host or cells: Rosetta E. coli (microsomal/membrane fraction)
T1 sequence (O14684 1-152): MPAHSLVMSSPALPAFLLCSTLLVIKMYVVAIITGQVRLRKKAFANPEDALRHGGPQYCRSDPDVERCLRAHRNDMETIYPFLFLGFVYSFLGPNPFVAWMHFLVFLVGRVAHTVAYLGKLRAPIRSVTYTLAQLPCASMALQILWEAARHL
Experimental: Microsomes from Rosetta E. coli bacteria expressing recombinant human mPGES-1 is dissolved in 0.1 M KPi pH 7.4 buffer containing 2.5 mM GSH. 50 μl of the enzyme is subsequently dispensed in a 384-well plate. 0.5 μl of the inhibitor dissolved in DMSO at is thereafter added to each well and incubated for 25 minutes at room temperature.
Subsequently, 2 μl of PGH2 dissolved in an appropriate solvent is added to each well and after one minute the acidified stop solution containing FeCl2 is added. 4 μl of the total volume is transferred to a separate plate and diluted 750-fold in two separate steps before HTRF detection of PGE2.
The HTRf detection is performed by the use of a commercially available kit from CisBio essentially according to the manufacturer's protocol. Briefly, 10 μl of the diluted sample is transferred to a white 384-well plate. 5 μl of d2 and 5 μl Eu3+-Cryptate labeled anti-PGE2 is added to each well containing samples by the use of a Multidrop. The plate is covered with a plastic self-adhesive film, centrifuged at 1200 rpm for 1 minute and subsequently stored at +4° C. over night.
After over night incubation the fluorescence is measured by the use of an appropriate microplate reader. The fluorescence of europium cryptate, and d2 are measured using the following excitation and emission wavelength, europium cryptate: λmax^ex=307 nm, λmax^em=620 nm and d2: λmax^ex=620 nm, λmax^em=665 nm), respectively. The extent of the specific FRET is measured as a ratio of the emission intensity at 665 nm vs. that at 620 nm. A standard curve using synthetic PGE2 is used to quantify the amount of PGE2 in unknown samples.

inhibition at 10 µM | SMILES
100% | Cn1c(Nc2c(Cl)cncc2Cl)nc2cc(C(=O)Nc3ccc(Br)cc3)c(OC3CCOC3)cc21 (stereo not shown) [Example 661, 2-(3,5-Dichloropyridin-4-ylamino)-N-(4-bromophenyl)-6-(tetrahydrofuran-3-yl-oxy)-1-methyl-1H-benzimidazole-5-carboxamide]
99% | CN1CCC(Oc2cc3c(cc2C(=O)Nc2ccc(Br)cc2)nc(Nc2c(Cl)cncc2Cl)n3C)C1 (stereo not shown) [Example 662, 2-(3,5-Dichloropyridin-4-ylamino)-N-(4-bromophenyl)-6-(N-methyl-pyrrolidin-3-yl-oxy)-1-methyl-1H-benzimidazole-5-carboxamide]
100% | CCOc1cc2[nH]c(Nc3c(Cl)cncc3Cl)nc2cc1C(=O)NC1CCC(C)(C)CC1 [Example 669, 2-(3,5-Dichloropyridin-4-ylamino)-N-(4,4-dimethyl-cyclohexyl)-6-ethoxy-1H-benzimidazole-5-carboxamide]
100% | CCOc1cc2c(cc1C(=O)NC1CCC(C)(C)CC1)nc(Nc1c(Cl)cncc1Cl)n2C [Example 670, 2-(3,5-Dichloropyridin-4-ylamino)-N-(4,4-dimethyl-cyclohexyl)-6-ethoxy-1-methyl-1H-benzimidazole-5-carboxamide]
100% | COCCOc1cc2c(cc1C(=O)NC1CCC(C)(C)CC1)nc(Nc1c(Cl)cncc1Cl)n2C [Example 671, 2-(3,5-Dichloropyridin-4-ylamino)-N-(4,4-dimethyl-cyclohexyl)-6-(2-methoxy-ethoxy)-1-methyl-1H-benzimidazole-5-carboxamide]
100% | CN(C)c1cc2c(cc1C(=O)NC1CCC(C)(C)CC1)nc(Nc1c(Cl)cncc1Cl)n2C [Example 672, 2-(3,5-Dichloropyridin-4-ylamino)-N-(4,4-dimethyl-cyclohexyl)-6-dimethylamino-1-methyl-1H-benzimidazole-5-carboxamide]
100% | CC1(C)CCC(NC(=O)c2cc3nc(Nc4c(Cl)cncc4Cl)[nH]c3cc2F)CC1 [Example 673, 2-(3,5-Dichloro-pyridin-4-yl-amino)-6-fluoro-N-(4,4-dimethyl-cyclohex-1-yl)-1H-benzimidazole-5-carboxamide]
100% | Cn1c(Nc2c(Cl)cncc2Cl)nc2cc(C(=O)NC3CCC(C)(C)CC3)c(F)cc21 [Example 674, 2-(3,5-Dichloropyridin-4-ylamino)-N-(4,4-dimethyl-cyclohex-1-yl)-6-fluoro-1-methyl-1H-benzimidazole-5-carboxamide]
100% | COc1cc2c(cc1C(=O)Nc1ccc(Br)cc1)nc(Nc1c(Cl)cncc1Cl)n2C [Example 679, 2-(3,5-Dichloro-pyridin-4-ylamino)-6-methoxy-N-(4-bromophenyl)-1-methyl-1H-benzimidazole-5-carboxamide]

Further lines, the compound ahead of its results:

SMILES | inhibition at 10 µM
Cc1cnccc1Nc1nc2cc(C(=O)Nc3ccc(Br)cc3)ccc2n1C [Example 567, N-(4-Bromophenyl)-1-methyl-2-(3-methylpyridin-4-ylamino)-1H-benzimidazole-5-carboxamide] | 80%
CCOc1cc2[nH]c(Nc3c(Cl)cncc3Cl)nc2cc1C(=O)Nc1cc(C(F)F)c(F)cn1 [Example 655, 2-(3,5-Dichloro-pyridin-4-yl-amino)-6-ethoxy-N-(5-fluoro-4-difluoromethyl-pyridin-2-yl)-1H-benzimidazole-5-carboxamide] | 100%
CN(C)c1cc(C(F)(F)F)cc(NC(=O)c2cc3nc(Nc4c(Cl)cncc4Cl)[nH]c3cc2OCC(F)(F)F)n1 [Example 656, 2-(3,5-Dichloro-pyridin-4-yl-amino)-6-(2,2,2-trifluoroethoxy)-N-(6-dimethylamino-4-trifluoromethyl-pyridin-2-yl)-1H-benzimidazole-5-carboxamide] | 96%
O=C(Nc1ccc(Br)cc1)c1cc2nc(Nc3c(Cl)cncc3Cl)[nH]c2cc1OC1CCOC1 (stereo not shown) [Example 659, 2-(3,5-Dichloro-pyridin-4-yl-amino)-6-(tetrahydrofuran-3-yl-oxy)-N-(4-bromo-phenyl)-1H-benzimidazole-5-carboxamide] | 98%
CCCOc1cc2c(cc1C(=O)Nc1ccc(Br)cc1)nc(Nc1c(Cl)cncc1Cl)n2C [Example 660, 2-(3,5-Dichloropyridin-4-ylamino)-N-(4-bromophenyl)-6-propoxy-1-methyl-1H-benzimidazole-5-carboxamide] | 99%
Cn1c(Nc2c(Cl)cncc2Cl)nc2cc(C(=O)Nc3ccc(Br)cc3)c(OCCN3CCCC3)cc21 [Example 663, 2-(3,5-Dichloropyridin-4-ylamino)-N-(4-bromophenyl)-6-(2-(pyrrolidin-1-yl)-ethoxy)-1-methyl-1H-benzimidazole-5-carboxamide] | 96%
Cn1c(Nc2c(Cl)cncc2Cl)nc2cc(C(=O)Nc3ccc(Br)cc3)c(OCCN3CCCC3=O)cc21 [Example 664, 2-(3,5-Dichloropyridin-4-ylamino)-N-(4-bromophenyl)-6-(2-(pyrrolidin-2-on-1-yl)-ethoxy)-1-methyl-1H-benzimidazole-5-carboxamide] | 99%
Cn1c(Nc2c(Cl)cncc2Cl)nc2cc(C(=O)NCc3ccccc3C(F)(F)F)c(OC3CCOC3)cc21 (stereo not shown) [Example 665, 2-(3,5-Dichloropyridin-4-ylamino)-N-((2-trifluoromethyl-phen-1-yl)-methyl)-6-(tetrahydrofuran-3-yl-oxy)-1-methyl-1H-benzimidazole-5-carboxamide] | 99%
COCCOc1cc2c(cc1C(=O)Nc1ccc(Br)cc1)nc(Nc1c(Cl)cncc1Cl)n2C [Example 666, 2-(3,5-Dichloropyridin-4-ylamino)-N-(4-bromophenyl)-6-(2-methoxy-ethoxy)-1-methyl-1H-benzimidazole-5-carboxamide] | 100%
CCOc1cc2[nH]c(Nc3c(Cl)cncc3Cl)nc2cc1C(=O)NCc1ncccc1C(F)(F)F [Example 667, 2-(3,5-Dichloropyridin-4-ylamino)-N-((3-trifluoromethyl-pyridin-2-yl)-methyl)-6-ethoxy-1H-benzimidazole-5-carboxamide] | 99%
CCOc1cc2c(cc1C(=O)NCc1ncccc1C(F)(F)F)nc(Nc1c(Cl)cncc1Cl)n2C [Example 668, 2-(3,5-Dichloropyridin-4-ylamino)-N-((3-trifluoromethyl-pyridin-2-yl)-methyl)-6-ethoxy-1-methyl-1H-benzimidazole-5-carboxamide] | 100%
O=C(N[C@H]1CC[C@H](C(F)(F)F)CC1)c1cc2nc(Nc3c(Cl)cncc3Cl)[nH]c2cc1OCC(F)(F)F [Example 675, 2-(3,5-Dichloro-pyridin-4-yl-amino)-6-(2,2,2-trifluoro-ethoxy)-N-(trans-4-trifluoromethyl-cyclohex-1-yl)-1H-benzimidazole-5-carboxamide] | 100%
O=C(Nc1ccc(Br)cc1)c1cc2nc(Nc3c(Cl)cncc3Cl)[nH]c2cc1OCC(F)(F)F [Example 676, 2-(3,5-Dichloropyridin-4-ylamino)-N-(4-bromophenyl)-6-(2,2,2-trifluoroethoxy)-1H-benzimidazole-5-carboxamide] | 100%
O=C(N[C@H]1CC[C@H](C(F)(F)F)CC1)c1cc2nc(Nc3c(Cl)cncc3Cl)[nH]c2cc1OCCF [Example 677, 2-(3,5-Dichloropyridin-4-ylamino)-N-(trans-4-trifluoromethyl-cyclohex-1-yl)-6-(2-fluoroethoxy)-1H-benzimidazole-5-carboxamide] | 100%
O=C(Nc1ccc(Br)cc1)c1cc2nc(Nc3c(Cl)cncc3Cl)[nH]c2cc1OCCF [Example 678, 2-(3,5-Dichloropyridin-4-ylamino)-N-(4-bromophenyl)-6-(2-fluoroethoxy)-1H-benzimidazole-5-carboxamide] | 100%
COc1cc2[nH]c(Nc3c(Cl)cncc3Cl)nc2cc1C(=O)Nc1cc(C(F)(F)F)ccn1 [Example 680, 2-(3,5-Dichloropyridin-4-ylamino)-N-(4-trifluoromethyl-pyridin-2-yl)-6-methoxy-1H-benzimidazole-5-carboxamide] | 100%
COc1cc2[nH]c(Nc3c(Cl)cncc3Cl)nc2cc1C(=O)Nc1cc(C(F)(F)F)cc(C)n1 [Example 681, 2-(3,5-Dichloro-pyridin-4-ylamino)-6-methoxy-N-(6-methyl-4-trifluoromethyl-pyridin-2-yl)-1H-benzimidazole-5-carboxamide] | 100%
COc1cc2[nH]c(Nc3c(Cl)cncc3Cl)nc2cc1C(=O)Nc1ccc(Br)cn1 [Example 682, 2-(3,5-Dichloro-pyridin-4-ylamino)-N-(5-bromo-pyridin-2-yl)-6-methoxy-1H-benzimidazole-5-carboxamide] | 99%
COc1cc2[nH]c(Nc3c(Cl)cncc3Cl)nc2cc1C(=O)Nc1ccc(C2CC2)cn1 [Example 684, 2-(3,5-Dichloro-pyridin-4-ylamino)-N-(5-cyclopropyl-pyridin-2-yl)-6-methoxy-1H-benzimidazole-5-carboxamide] | 98%
